Reference: patent US20250213592A1, “PHARMACEUTICAL COMPOSITION COMPRISING CURCUMIN AND GINSENOSIDE, AND FORMULATION THEREOF” (CORESTEMCHEMON INC., priority 2022, published 2025)

What was measured:
[1] = test system: radiation proctitis model mouse; test: Radiation proctitis model mouse: pathological morphology of colon and rectal tissue (H&E); type: in vivo; details: 27 Gy, intrarectal, 14 days, vs irradiated group (IR)
Procedure: by administration of combination drug to proctitis model mouse C57BL/6 mice (5 weeks old, female) were irradiated with 27 Gy of radiation, and then divided into test groups as shown in Table 4 and FIG. 13. From the next day, samples prepared at concentrations as shown in Table 5 and FIG. 14 (formulated using the method of Example 1) were administered intrarectally at 2-3 day intervals for a total of 6 times (FIG. 16).
The efficacy of the treated samples was confirmed 14 days after the final radiation. In this case, except for the non-irradiated group (n=5), all test treatment groups were conducted with 7 mice per group. A flexible plastic tube was inserted into the rectum for administration, and a formulation containing approximately 50 μl of the compound was administered per mouse at a time.
In addition, pathological morphological analysis of the intestinal tissue was performed by observing the morphology of each treatment group through a microscope after performing H&E staining.
Specifically, the extracted organs were fixed in 10% formalin and paraffin blocks were created (STP120 Spin tissue Processor, Myr). Thereafter, sections were mounted on slides using a microtome (Finesse ME Microtome, Thermo Shandon), dried, deparaffinized and hydrated to create tissue slides. […]

[2] = test system: human dermal fibroblasts (HDF); test: Cell mobility (transwell) of irradiated human dermal fibroblasts; type: cell-based; details: 10 μM, alone or in combination
Procedure: (§1) Cell mobility was measured using a 24 mm transwell with […]. After stabilizing the cells irradiated with 10 Gy of radiation for 24 hours, the cells were suspended in a medium and seeded in the upper chamber of the transwell, and the lower chamber was filled with a medium containing 10% fetal bovine serum (FBS) and 10 μM butyric acid (BA), ginsenosides Rh1, Rh2, Ro, Rb1, curcumin (CU), and sucralfate (SCF) either alone or in combination, and culturing was performed. After 24 hours of culture, the downside of the transwell was stained with crystal violet dye, and the stained cells were counted by observing them with an inverted microscope.

HUVEC = test: Vascular endothelial cell tube formation after irradiation; type: cell-based, human; details: irradiated HUVEC, 10 μM, alone or in combination
Procedure: After irradiating human umbilical endothelial cells (HUVEC) with 10 Gy of radiation, the cells were seeded on a matrigel-coated u-slide, and were treated with 10 μM of curcumin (CU), butyric acid (BA), sucralfate (SCF), ginsenosides Rh1, Rh2, Rb1, or Ro either alone or in combination.
It was investigated whether a treatment with curcumin (CU), butyric acid (BA), sucralfate (SCF), and ginsenoside Rh1 (Rh1) alone or in combination restored the function of HUVEC cells damaged by radiation.

SNU-C1 [3] = test: Cell viability (Cell Counting Kit-8) of irradiated SNU-C1 cells; type: cell-based, human; details: SNU-C1, 10 Gy, 48 hours
Procedure: (§2) Human colon cancer cell lines (HCT116 and SNU-C1), a human dermal fibroblast cell line and a human keratinocyte cell line (HaCaT) were cultured in Dulbecco's modified eagles medium-high glucose (DMEM) containing 10% fetal bovine serum (FBS), 100 units/mL penicillin, and 100 μg/mL streptomycin. A Human umbilical vascular endothelial cell line (HUVEC) was cultured in a vascular cell basal medium (ATCC) containing Endothelial cell growth kit-VEGF (ATCC). All of the above cells were cultured in a 5% CO2 cell incubator at 37° C.
(§3) Cell viability test was performed using Cell Counting Kit-8. HCT116 and SNU-C1 cell lines, which are colon cancer cells, were seeded on 60 mm culture dishes and cultured, and then irradiated with 10 Gy of radiation. The cells were harvested, seeded on 96-well culture plates, and incubated, and then the cells were treated with butyric acid (BA), ginsenosides Rh1, Rh2, Ro, Rb1, and curcumin (CU) at concentrations of 5, 10, or 50 μM, respectively. After 48 hours, cell viability was analyzed using Cell Counting Kit-8 and a microplate reader.
(§4) In order to investigate the effects of curcumin (CU), butyric acid (BA), and ginsenoside on the decreased cell viability due to irradiation, HCT116 and SNU-C1 cells were treated with curcumin, butyric acid, ginsenoside Rh1, Rh2, Ro, or Rb1 at concentrations of 5, 10, and 50 μM, respectively, and the viability of each cell was measured (FIGS. 1 and 2).

HCT116 [4] = test: Cell viability (Cell Counting Kit-8) of irradiated HCT116 cells; type: cell-based, human; details: HCT116, 10 Gy, 48 hours
Procedure: as §2, §3, §4

SNU-C1 [5] = test: Cell mobility (transwell) of irradiated SNU-C1 cells; type: cell-based, human; details: SNU-C1, 10 Gy, 10 μM, 24 hours
Procedure: as §1

HCT116 [6] = test: Cell mobility (transwell) of irradiated HCT116 cells; type: cell-based, human; details: HCT116, 10 Gy, 10 μM, 24 hours
Procedure: as §1
The experiment was conducted using the same manner as Experimental Example 3, except that the effective agents for treatment were a combination of curcumin, butyric acid, sucralfate, and ginsenoside.

skin of irradiated mice = details: cited from earlier work
[7] = test system: intestinal epithelial cells; details: cited from earlier work
[8] = 5 μM or 10 μM, vs irradiated group

Sucralfate [reference compound]
epithelium loss and crypt damage induced by irradiation [1]: recovered in all sample treatment groups except the sucralfate treatment group | Mobility rate (%), average value [2]: 91% | Tube length (%), average value (HUVEC): 14%

CC1(C)CC[C@]2(C(=O)O[C@@H]3O[C@H](CO)[C@@H](O)[C@H](O)[C@H]3O)CC[C@]3(C)C(=CC[C@@H]4[C@@]5(C)CC[C@H](O[C@@H]6O[C@H](C(=O)O)[C@@H](O)[C@H](O)[C@H]6O[C@@H]6O[C@H](CO)[C@@H](O)[C@H](O)[C@H]6O)C(C)(C)[C@@H]5CC[C@]43C)[C@@H]2C1 [Ro, ginsenoside Ro]
cell viability compared to the irradiated group (SNU-C1 [3]; 5 μM): lower cell viabilities than the irradiated group | cell viability compared to the irradiated group (HCT116 [4]; 5 μM): lower cell viabilities than the irradiated group

COc1cc(/C=C/C(=O)CC(=O)/C=C/c2ccc(O)c(OC)c2)ccc1O [curcumin]
cell viability decreased by irradiation (SNU-C1 [3]; [8]): significantly increased | cell viability compared to the irradiated group (SNU-C1 [3]; 50 μM): lower cell viabilities than the irradiated group | cell mobility rate compared to the irradiated group (SNU-C1 [5]): significantly increased | Mobility rate (%), average value [2]: 130% | Tube length (%), average value (HUVEC): 15% | cell viability decreased by irradiation (HCT116 [4]; [8]): significantly increased | cell viability compared to the irradiated group (HCT116 [4]; 50 μM): lower cell viabilities than the irradiated group | cell mobility rate compared to the irradiated group (HCT116 [6]): double increase | skin damage (skin of irradiated mice; irradiated mice): restoring skin damage | expression of inflammatory cytokines and fibrogenic cytokines (skin of irradiated mice; skin of irradiated mice): reducing the expression

CC(C)=CCC[C@](C)(O[C@@H]1O[C@H](CO[C@@H]2O[C@H](CO)[C@@H](O)[C@H](O)[C@H]2O)[C@@H](O)[C@H](O)[C@H]1O)[C@H]1CC[C@]2(C)[C@@H]1[C@H](O)C[C@@H]1[C@@]3(C)CC[C@H](O[C@@H]4O[C@H](CO)[C@@H](O)[C@H](O)[C@H]4O[C@@H]4O[C@H](CO)[C@@H](O)[C@H](O)[C@H]4O)C(C)(C)[C@@H]3CC[C@]12C [Rb1, ginsenoside Rb1]
cell mobility rate compared to the irradiated group (SNU-C1 [5]): significantly increased

CCCC(=O)O [butyric acid, Butyric acid]
Mobility rate (%), average value [2]: 76% | Tube length (%), average value (HUVEC): 14% | cell mobility rate compared to the irradiated group (HCT116 [6]): double increase

CC(C)=CCC[C@](C)(O)[C@H]1CC[C@]2(C)[C@@H]1[C@H](O)C[C@@H]1[C@@]3(C)CC[C@H](O[C@@H]4O[C@H](CO)[C@@H](O)[C@H](O)[C@H]4O)C(C)(C)[C@@H]3CC[C@]12C [Rh2, ginsenoside Rh2]
cell viability compared to the irradiated group (SNU-C1 [3]; 50 μM): lower cell viabilities than the irradiated group | cell viability compared to the irradiated group (HCT116 [4]; 50 μM): lower cell viabilities than the irradiated group | cell mobility rate compared to the irradiated group (HCT116 [6]): highest cell mobility recovery rate

CC(C)=CCC[C@](C)(O[C@@H]1O[C@H](CO)[C@@H](O)[C@H](O)[C@H]1O)[C@H]1CC[C@]2(C)[C@@H]1[C@H](O)C[C@@H]1[C@@]3(C)CC[C@H](O[C@@H]4O[C@H](CO)[C@@H](O)[C@H](O)[C@H]4O[C@@H]4O[C@H](CO)[C@@H](O)[C@H](O)[C@H]4O)C(C)(C)[C@@H]3CC[C@]12C [ginsenoside Rd]
apoptosis induced by irradiation [7]: inhibit apoptosis

CC(C)=CCC[C@](C)(O)[C@H]1CC[C@]2(C)C1[C@H](O)C[C@@H]1[C@@]3(C)CC[C@H](O)C(C)(C)[C@@H]3[C@@H](O[C@@H]3O[C@H](CO)[C@@H](O)[C@H](O)[C@H]3O)C[C@]12C (stereo partly shown) [Rh1, ginsenoside Rh1]
Mobility rate (%), average value [2]: 99% | Tube length (%), average value (HUVEC): 15%
